Tests used:
[1] = Activation of human RNase L using [CY5]-r(C11-UUC7)- [BHQ2] as substrate assessed as cleavage of fluorescent substrate by measuring increase in fluorescence incubated for 30 mins by FRET assay
Homo sapiens [2] = species on record: Homo sapiens; test: Activation of human RNase L assessed as reduction in Vmax using varying concentrations of [CY5]-r(C11-UUC7)- [BHQ2] as substrate incubated for 30 mins by FRET assay relative to control; set-up: scale not given: the % may be the effect or the level left; conditions: filed as activator
Homo sapiens [3] = species on record: Homo sapiens; test: Activation of human RNase L using [CY5]-r(C11-UUC7)- [BHQ2] as substrate assessed as cleavage of fluorescent substrate by measuring increase in fluorescence at 100 nM incubated for 30 mins by FRET assay relative to control; conditions: filed as activator

Row | SMILES | EC50 [1] [nM] | Activity (Homo sapiens [2]) [%] | Activity (Homo sapiens [3]) [%]
1 | Nc1ncnc2c1ncn2[C@@H]1O[C@H](COP(=O)(O)O[C@@H]2[C@H](O)[C@@H](COP(=O)(O)O[C@@H]3[C@H](O)[C@@H](COP(=O)(O)O)O[C@H]3n3cnc4c(N)ncnc43)O[C@H]2n2cnc3c(N)ncnc32)[C@@H](O)[C@H]1O | 15.3 | – | –
2 | Nc1ncnc2c1ncn2[C@@H]1O[C@H](COP(=O)(O)O[C@@H]2[C@H](O)[C@@H](COP(=O)(O)O[C@@H]3[C@H](O)[C@@H](COCP(=O)(O)O)O[C@H]3n3cnc4c(N)ncnc43)O[C@H]2n2cnc3c(N)ncnc32)[C@@H](O)[C@H]1O | 46.1 | 33 | > 75
3 | Nc1ncnc2c1ncn2[C@@H]1O[C@H](COP(=O)(O)O[C@@H]2[C@H](O)[C@@H](COP(=O)(O)O[C@@H]3[C@H](O)[C@@H](OCP(=O)(O)O)O[C@H]3n3cnc4c(N)ncnc43)O[C@H]2n2cnc3c(N)ncnc32)[C@@H](O)[C@H]1O | 18.9 | – | > 75
4 | Nc1ncnc2c1ncn2[C@@H]1O[C@H](COP(=O)(O)O[C@@H]2[C@H](O)[C@@H](COP(=O)(O)O[C@@H]3[C@H](O)[C@@H](COCC(O)P(=O)(O)O)O[C@H]3n3cnc4c(N)ncnc43)O[C@H]2n2cnc3c(N)ncnc32)[C@@H](O)[C@H]1O (stereo partly specified) | 55.2 | 33 | > 75
5 | Nc1ncnc2c1ncn2[C@@H]1O[C@H](COP(=O)(O)O[C@@H]2[C@H](O)[C@@H](COP(=O)(O)O[C@@H]3[C@H](O)[C@@H](CNC(=O)P(=O)(O)O)O[C@H]3n3cnc4c(N)ncnc43)O[C@H]2n2cnc3c(N)ncnc32)[C@@H](O)[C@H]1O | 20.9 | – | > 75
6 | Nc1ncnc2c1ncn2[C@@H]1O[C@H](COP(=O)(O)O[C@@H]2[C@H](O)[C@@H](COP(=O)(O)O[C@@H]3[C@H](O)[C@@H](CSCP(=O)(O)O)O[C@H]3n3cnc4c(N)ncnc43)O[C@H]2n2cnc3c(N)ncnc32)[C@@H](O)[C@H]1O | 33.8 | 33 | > 75
7 | C[C@]1(OCP(=O)(O)O)O[C@@H](n2cnc3c(N)ncnc32)[C@H](OP(=O)(O)OC[C@H]2O[C@@H](n3cnc4c(N)ncnc43)[C@H](OP(=O)(O)OC[C@H]3O[C@@H](n4cnc5c(N)ncnc54)[C@H](O)[C@@H]3O)[C@@H]2O)[C@@H]1O | 35.7 | – | > 75

— ChEMBL document CHEMBL5131462, “5'-Phosphonate modified oligoadenylates as potent activators of human RNase L” (Bioorg Med Chem, 2022)
